The target of series [1] is T1, human placental aromatase (Homo sapiens, UniProt P11511).
T1 construct: Human placental aromatase was assayed according to the method of Thomson and Siiteri; from tissue; host or cells: human placenta
T1 sequence (P11511 1-503): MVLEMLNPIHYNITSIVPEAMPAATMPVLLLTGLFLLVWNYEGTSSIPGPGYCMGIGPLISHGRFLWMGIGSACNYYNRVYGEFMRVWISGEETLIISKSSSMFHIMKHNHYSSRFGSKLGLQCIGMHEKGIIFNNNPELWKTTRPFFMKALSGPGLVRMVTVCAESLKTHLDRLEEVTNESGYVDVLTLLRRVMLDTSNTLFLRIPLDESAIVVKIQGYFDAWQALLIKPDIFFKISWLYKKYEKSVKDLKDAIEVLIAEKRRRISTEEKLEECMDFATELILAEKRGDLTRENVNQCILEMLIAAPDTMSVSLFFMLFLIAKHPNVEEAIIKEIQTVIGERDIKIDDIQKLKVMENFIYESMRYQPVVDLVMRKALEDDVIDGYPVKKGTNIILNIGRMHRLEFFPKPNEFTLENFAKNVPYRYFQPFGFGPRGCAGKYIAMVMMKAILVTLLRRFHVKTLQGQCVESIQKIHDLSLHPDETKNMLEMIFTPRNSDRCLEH
As to the kind of experiment: Human placental aromatase assay ([3H]-H2O release), in vitro. It counts as biochemical. To be noted: 1 mM NADPH, read-out: Aromatase inhibitory activity - in vitro IC₅₀. As for the experimental part:
Aromatase inhibitory activity may be determined using human placental aromatase.
Human placental aromatase was assayed according to the method of Thomson and Siiteri, Hormone Res. (1979) 11:179-185, except that the assay buffer contained 1 mM NADPH instead of the NADPH-generating system. [³H]-H₂O, released as a by-product of aromatization, was separated from substrate using C18 mini-columns.

The test system of series [2] is mouse. As to the kind of experiment: Acute toxicity study, single oral doses. It counts as in vivo. To be noted: single doses up to 2g/kg p.o.

On to `CC1(C)OC(=O)c2ccc(C(c3c(F)cc([N+](=O)[O-])cc3F)n3cncn3)cc21` (racemic) [Example 1, 5-[(2,6-Difluoro-4-nitrophenyl)-1,2,4-triazol-1-ylmethyl]-3,3-dimethyl-3H-isobenzofuran-1-one], for which the IC50 in series [1] is 15 nM. The “Acute toxicity (tolerability)” value in series [2] is “well tolerated”.
On to `CC1(C)OC(=O)c2ccc(C(c3ccc(C#N)cc3)n3cncn3)cc21` (racemic) [Example 7, 4-[(3,3-Dimethyl-1-oxo-1,3-dihydro-isobenzofuran-5-yl)-1,2,4-triazol-1 - ylmethyl]-benzonitrile], for which the IC50 in series [1] came out at 73 nM.
Turning to `CC1(C)OC(=O)c2ccc(C(c3ccc([N+](=O)[O-])cc3F)n3cncn3)cc21` (stereo not shown) [Example 2, 5-[(2-Fluoro-4-nitrophenyl)-1,2,4-triazol-1-ylmethyl]-3,3-dimethyl-3H-isobenzofuran-1-one], the IC50 in series [1] stood at 63 nM.
On the same count and under the same terms, the result for `CC1(C)OC(=O)c2ccc(C(c3c(F)cc(C#N)cc3F)n3cncn3)cc21` (stereo not shown) [Example 3, 4-[(3.3-Dimethyl-1-oxo-1,3-dihydro-isobenzofuran-5-yl)-1,2,4-triazol-1-ylmethyl]-3,5-difluorobenzonitrile] reads 24 nM; that for `CC1(C)OC(=O)c2ccc(C(c3ccc([N+](=O)[O-])cc3)n3cncn3)cc21` (stereo not shown) [Example 5, 5-[(4-Nitrophenyl)-1,2,4-triazol-1-ylmethyl]-3,3-dimethyl-3H-isobenzofuran-1-one], 51 nM; that for `CC1(C)OC(=O)c2ccc(C(c3ccc(C#N)cc3F)n3cncn3)cc21` (stereo not shown) [Example 6, 4-[(3,3-Dimethyl-1-oxo-1,3-dihydro-isobenzofuran-5-yl)-1,2,4-triazol-1 - ylmethyl]-3-fluorobenzonitrile], 83 nM.

(Values after patent publication EP0574992A1, “5-(1,2,4-Triazol-1-ylmethyl)-3H-isobenzofuran-1-one derivatives, their preparation and use as aromatase inhibitors” (GLAXO GROUP LIMITED, priority 1992, dated 1993).)
